Measurements published in ChEMBL document CHEMBL1201862, “PubChem BioAssay data set” (2004).
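Values below derive from 48-hour exposures of cells grown in 96-well plates, with endpoints linearly interpolated between the two concentrations bracketing the appropriate inhibition level. GI50 = concentration required for 50% inhibition of growth.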 Calls of active or inactive are those of the source. No stated cut-off is given here; in the data, active = GI50 up to about 1.1 µM and inactive = higher.

Assays:
Test in all cases: NCI-60 cell line screen, 48 h
COLO 205 = system: COLO 205
K562 = system: K562
HT-29 = system: HT-29
MOLT-4 = system: MOLT-4
786-0 = system: 786-0
SF-295 = system: SF-295
HL-60 = system: HL-60
CCRF-CEM = system: CCRF-CEM
SF-268 = system: SF-268
OVCAR-8 = system: OVCAR-8
SK-MEL-5 = system: SK-MEL-5
OVCAR-5 = system: OVCAR-5
DU-145 = system: DU-145
A498 = system: A498
SW-620 = system: SW-620
U-251 = system: U-251
CAKI-1 = system: CAKI-1
HCC 2998 = system: HCC 2998
EKVX = system: EKVX
MCF7 = system: MCF7

SMILES	GI50 (COLO 205)	GI50 (K562)	GI50 (HT-29)	GI50 (MOLT-4)	GI50 (786-0)	GI50 (SF-295)	GI50 (HL-60)	GI50 (CCRF-CEM)	GI50 (SF-268)	GI50 (OVCAR-8)	GI50 (SK-MEL-5)	GI50 (OVCAR-5)	GI50 (DU-145)	GI50 (A498)	GI50 (SW-620)	GI50 (U-251)	GI50 (CAKI-1)	GI50 (HCC 2998)	GI50 (EKVX)	GI50 (MCF7)
COc1cc(OC)c2c(c1OC)OCC(Cc1ccc(O)cc1)C2=O (centres undefined)	> 25 µM (inactive)	> 25 µM (inactive)	> 25 µM (inactive)	> 25 µM (inactive)	> 25 µM (inactive)	> 25 µM (inactive)	11.3 µM (inactive)	> 25 µM (inactive)	> 25 µM (inactive)	> 25 µM (inactive)	19.8 µM (inactive)	> 25 µM (inactive)	> 25 µM (inactive)	> 25 µM (inactive)	> 25 µM (inactive)	> 25 µM (inactive)	> 25 µM (inactive)			
O=S(=O)(NC(c1ccccc1)(c1cc2ccccc2[nH]1)c1cc2ccccc2n1S(=O)(=O)c1ccccc1)c1ccccc1 (centres undefined)	> 100 µM (inactive)	> 100 µM (inactive)	> 100 µM (inactive)	> 100 µM (inactive)	> 100 µM (inactive)	> 100 µM (inactive)	> 100 µM (inactive)	> 100 µM (inactive)	> 100 µM (inactive)	> 100 µM (inactive)	> 100 µM (inactive)	> 100 µM (inactive)	> 100 µM (inactive)	> 100 µM (inactive)	> 100 µM (inactive)	> 100 µM (inactive)	> 100 µM (inactive)	> 100 µM (inactive)	> 100 µM (inactive)	
c1ccc(C2(c3cc4ccccc4[nH]3)OCCO2)cc1	27.9 µM (inactive)	22.2 µM (inactive)	26.1 µM (inactive)	11.6 µM (inactive)	> 100 µM (inactive)	53.1 µM (inactive)		18.4 µM (inactive)	47 µM (inactive)	76.2 µM (inactive)	23.1 µM (inactive)	30.8 µM (inactive)	65.3 µM (inactive)	37.2 µM (inactive)	24 µM (inactive)	> 100 µM (inactive)	86.1 µM (inactive)		23.9 µM (inactive)	31 µM (inactive)
CC(=O)N(C)CCc1c[nH]c2ccccc12	> 100 µM (inactive)	> 100 µM (inactive)	> 100 µM (inactive)	> 100 µM (inactive)	> 100 µM (inactive)	> 100 µM (inactive)	> 100 µM (inactive)	> 100 µM (inactive)	> 100 µM (inactive)	> 100 µM (inactive)	> 100 µM (inactive)	> 100 µM (inactive)	> 100 µM (inactive)		> 100 µM (inactive)	> 100 µM (inactive)	> 100 µM (inactive)		> 100 µM (inactive)	> 100 µM (inactive)
CCOC(=O)c1nc2ccccc2nc1Oc1cc(OC)cc(OC)c1	81.5 µM (inactive)	> 100 µM (inactive)	> 100 µM (inactive)	> 100 µM (inactive)	35.5 µM (inactive)	> 100 µM (inactive)	8.41 µM (inactive)	> 100 µM (inactive)	76.7 µM (inactive)	> 100 µM (inactive)	> 100 µM (inactive)	> 100 µM (inactive)	> 100 µM (inactive)	> 100 µM (inactive)	> 100 µM (inactive)	78.3 µM (inactive)			60.1 µM (inactive)	> 100 µM (inactive)
C=C(CN(C)C)C(=O)c1ccccc1	1.46 µM (inactive)	2.07 µM (inactive)	10.2 µM (inactive)	1.91 µM (inactive)	3.3 µM (inactive)	31.4 µM (inactive)	0.577 µM (active)	0.631 µM (active)	24.5 µM (inactive)	19.5 µM (inactive)	15.2 µM (inactive)	16.5 µM (inactive)	16.6 µM (inactive)	20.7 µM (inactive)	1.69 µM (inactive)	18.7 µM (inactive)	4.75 µM (inactive)	18 µM (inactive)	21.8 µM (inactive)	
